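96-well plates; 48 h exposure; 5 concentrations. Endpoints by linear interpolation between flanking doses. Not reached: highest tested concentration assigned. At the GI50, growth is halved. At the TGI there is no net growth.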
Legend:
Test in all cases: NCI tumour cell line growth inhibition, 48 h
[1] = system: SF-268 CNS
[2] = system: RXF 393 renal
[3] = system: SF-539 CNS
[4] = system: U251 CNS
[5] = system: CAKI-1 renal
[6] = system: SK-OV-3 ovarian
[7] = system: ACHN renal
[8] = system: BT-549 breast
[9] = system: TK-10 renal
[10] = system: HT29 colon
[11] = system: NCI-H226 lung
[12] = system: CCRF-CEM leukemia
[13] = system: MOLT-4 leukemia
[14] = system: MCF7 breast
[15] = system: UACC-62 melanoma
[16] = system: SR leukemia
[17] = system: COLO 205 colon
[18] = system: KM12 colon
[19] = system: K-562 leukemia
[20] = system: DU-145 prostate
[21] = system: UACC-257 melanoma
[22] = system: SK-MEL-2 melanoma
[23] = system: HOP-62 NSCLC
[24] = system: OVCAR-5 ovarian
[25] = system: RPMI-8226 leukemia
[26] = system: SK-MEL-28 melanoma
[27] = system: OVCAR-8 ovarian
[28] = system: NCI-H522 lung

Cc1ccccc1N1CCN(C2=C(Cl)C(=O)c3ncccc3C2=O)CC1
GI50 [1]: 23.7 µM | TGI [1]: > 100 µM | GI50 [2]: 1.74 µM | TGI [2]: 3.17 µM | GI50 [3]: 1.8 µM | TGI [3]: 3.32 µM | GI50 [4]: 6 µM | TGI [4]: 25.6 µM | GI50 [5]: 2.78 µM | TGI [5]: > 100 µM | GI50 [6]: 37.2 µM | TGI [6]: > 100 µM | GI50 [7]: 1.85 µM | TGI [7]: 3.89 µM | GI50 [8]: 1.96 µM | TGI [8]: 3.41 µM | GI50 [9]: 4.76 µM | TGI [9]: > 100 µM | GI50 [10]: 5.33 µM | TGI [10]: > 100 µM | GI50 [11]: 20.8 µM | TGI [11]: > 100 µM | GI50 [12]: 1.73 µM | TGI [12]: 5.19 µM | GI50 [13]: 1.78 µM | TGI [13]: 4.95 µM | GI50 [14]: 1.46 µM | TGI [14]: 3.22 µM | GI50 [15]: 3.92 µM | TGI [15]: 42.2 µM | GI50 [16]: 1 µM | TGI [16]: 5 µM | GI50 [17]: 3.14 µM | TGI [17]: 10.8 µM | GI50 [18]: 48.1 µM | TGI [18]: > 100 µM | GI50 [19]: 1.28 µM | TGI [19]: 4.08 µM | GI50 [20]: 3.8 µM | TGI [20]: > 100 µM | GI50 [21]: 1.98 µM | TGI [21]: 4.25 µM | GI50 [22]: 2.75 µM | TGI [22]: 14.8 µM | GI50 [23]: 35.1 µM | TGI [23]: > 100 µM | GI50 [24]: 6.89 µM | TGI [24]: 21.2 µM | GI50 [25]: 2 µM | TGI [25]: 5.22 µM | GI50 [26]: 2.19 µM | TGI [26]: 5.06 µM | GI50 [27]: 1.91 µM | TGI [27]: 4.35 µM | GI50 [28]: 1.68 µM
